Reference: article doi:10.1101/2025.10.16.682360v1, “Live-Cell Chemoproteomic Profiling Identifies the Uncharacterised Protein YbaA as a Direct Target of Ciprofloxacin in Escherichia coli” (biorxiv, 2025)

Assays:
YjdN = target: T1, YjdN (Escherichia coli, UniProt P16681); assay: surface plasmon resonance; type: binding
T1 construct: C-terminal His10 tag; purified by IMAC and size exclusion chromatography
T1 sequence (P16681 1-147): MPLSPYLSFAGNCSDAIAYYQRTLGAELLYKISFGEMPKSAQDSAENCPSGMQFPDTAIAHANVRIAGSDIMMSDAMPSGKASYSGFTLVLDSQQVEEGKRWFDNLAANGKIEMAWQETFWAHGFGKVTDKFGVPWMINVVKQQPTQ
Text: surface plasmon resonance on YjdN | Direct binding of CFX to YjdN or YbaA was further assessed by surface plasmon resonance

YbaA = target: T2, YbaA (Escherichia coli, UniProt P0AAQ6); assay: surface plasmon resonance; type: binding
T2 construct: C-terminal His10 tag; purified by IMAC and size exclusion chromatography; printed peptide IVECWASDVPDGKVTDFR
T2 sequence (P0AAQ6 1-117): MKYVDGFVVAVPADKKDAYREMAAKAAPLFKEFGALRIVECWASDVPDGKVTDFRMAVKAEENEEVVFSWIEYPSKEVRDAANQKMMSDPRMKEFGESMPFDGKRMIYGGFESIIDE
Text: surface plasmon resonance on YbaA | Direct binding of CFX to YjdN or YbaA was further assessed by surface plasmon resonance

SMILES: O=C(O)c1cn(C2CC2)c2cc(N3CCNCC3)c(F)cc2c1=O [compound 1, Ciprofloxacin]
- Kd (YjdN): 1400 ± 620 nM
- Kd (YbaA): 1000 ± 340 nM
